{"source": "patent US11028369B2", "about": "“Induced extended pluripotent stem cells, method of making and using” (Beihao Stem Cell and Regenerative Medicine Research …, priority 2015, dated 2021)", "key": {"hEPS cells": {"system": "hEPS cells", "assay": "Maintenance of hEPS cells after withdrawal or replacement of DiM or MiH", "assay_type": "cell-based, human", "conditions": "for maintenance of hEPS cells when DiM or MiH is replaced: inhibitor of the same target replaces DiM or MiH in LCDM; for maintenance of hEPS cells when DiM is replaced by MAPK signaling inhibitor: replacement of DiM", "protocol": "FIGS. 4A and 4B show the profiles of H3K4me3 and H3K27me3 chromatin marks over all genes in primed hES (n=2, technical replicates) and hEPS (n=2, technical replicates) cells. The standard error of mean (SEM) across the regions is calculated and shown as a semi-transparent shade around the mean curve. FIGS. 4C-D are bar graphs showing Q-PCR analysis of selected gene expression in hEPS cells under different conditions at passage 7. DiM (((S)-(+)-Dimethindene maleate) (FIG. 4C) and MiH (Minocycline hydrochloride) (FIG. 4D) were replaced with small molecules targeting to the same targets in the LCDM [hLIF (human leukemia inhibitory factor), CHIR99021, DiM, and MiH] condition. hEPS cells were cultured under LCM condition with an added small molecule selected from: DiM (2 μM), TH(5 μM), DES(5 μM), or cultured with DMSO (dimethyl sulfoxide) respectively (FIG. 4C) or under LCD condition with an added small molecule selected from MiH, BSI-201 (5 μM), NAM (100 μM), PJ34 (N-(6-Oxo-5,6-dihydro-phenanthridin-2-yl)-N,N-dimethylacetamide. HCl) (5 μM), or DMSO (FIG. 4D). Expression values are normalized to the mean value of the LCM+DiM (FIG. 4C) and LCD+MiH (FIG. 4D) sample. LCM: human LIF+CHIR99021+MiH; LCD: human LIF+CHIR99021+DiM. Center values indicate mean. Error bars indicate s.d. (n=3, technical replicates). TH: Tripelennamine HCL; DES: Desloratadine; BSI: BSI-201; NAM: Nicotinamide. […] Expression values are normalized to the mean value of the scramble control. Center values indicate mean. Error bars indicate s.d. (n=3, technical replicates). FIG. 4F is a bar graph showing a summary of chimera assays at E12.5. […] FIG. 4G is a bar graph showing a summary of chimeric assays of single-cell injection at the 8-cell embryo stage. […] ICM & TE, embryos with the integration of mouse cells into both ICM and TE.\nHuman and mouse extended pluripotent stem cells were cultured in serum-free N2B27-LCDM medium in 20% O2, 5% CO2 conditions. To maintain human EPS cells in an undifferentiated state, the following criteria were used: a) avoidance of plating human EPS cells too sparsely; b) use of the proper quantity of freshly prepared MEF feeder cells; and c) not allowing human EPS cells to overgrow (for example, attain more than 90% confluence; preferably, the cells should be at less than 90% confluent). Accordingly, human and mouse EPS cells were cultured on mitomycin C-inactivated mouse embryonic fibroblast (MEF) feeder cells (3×10^4 cells per cm^2), and were passaged by single-cell trypsinization (0.05% trypsin-EDTA, Invitrogen) every 2-4 days (normally at a split ratio of 1:6 to 1:10). Passage numbers of EPS cells indicate number of passages counted after the acquirement of the extended pluripotent state. The N2B27-LCDM medium was changed every day with fresh LCDM medium.\nFinally, the roles of DiM and MiH in maintaining EPS cells were investigated. […] Furthermore, similar results were obtained when MiH was replaced by the knockdown of PARP1 in hEPS cells (FIG. 4E). Importantly, both mEPS and hEPS cells still retained their ability of contributing to both TE and ICM in blastocysts under such conditions (FIG. 6C, 6D, and data not shown)."}, "mEPS cells": {"system": "mEPS cells", "assay": "Chimeric analysis of mEPS cells cultured under different conditions (injection into 8-cell embryos)", "assay_type": "cell-based, mouse", "conditions": "chimeric blastocysts; for developmental potency of mEPS cells when DiM is replaced by MAPK signaling inhibitor: replacement of DiM", "protocol": "FIGS. 6A and 6B show PCA of RNA-seq and microarray data from EPS cells and known pluripotent cell types. […] Data were normalized to mES cells in each study. […] Data were normalized to primed hPSCs in each study. […] Circles: RNA-seq data; triangles: microarray data. […] Parp1 knockout mEPS cells (Parp1-KO) were cultured in LCDM condition without MiH (-MiH). mEPS cells were cultured under different conditions for at least 5 passages before injection. Multiple cells were injected into 8-cell embryos, which were cultured for additional 60 hours before further analysis. […] ICM & TE, embryos with the integration of mouse cells into both ICM and TE. […] ICM & TE, embryos with the integration of mouse cells into both ICM and TE. TH: TripelennamineHCL; DES: Desloratadine; NAM: Nicotinamide. PD: PD0325901; SB: SB203580; SP: SP600125.\nFor injection of Tdtomato-labeled mEPS cells and conventional naïve mouse ES cells, mEPS and naïve mouse ES cells were trypsinized and microinjected in the same way as for hEPS cells except that Y27632 was not added into the suspension.\nThe cells used in this experiment were cultured and prepared in a way that was similar to that of the multiple-cell microinjections. The cell suspension was placed on ice for 20-30 minutes before injection. After being placed on ice, the digested single cells were used for injection within 1 hour: in other words, the whole injection process should not take more than 30 minutes. Afterward, the injected embryos are recovered for 1-2 hours in a humidified incubator with 5% CO2 at 37° C. If the cells were placed on ice for more than 1 hour, then another batch of cells was digested for the remaining injections. […] After 60 hours, the embryos were fixed and immunostained."}, "primed hES/hPS H9 cells": {"system": "primed hES/hPS H9 cells", "assay": "Screen for dome-shaped hES colony formation / TGFβ signaling-independent self-renewal", "assay_type": "cell-based, human", "conditions": "hLIF+2i + candidate with SB431542", "excerpt": "Primed hES are flat colonies. By contrast, naïve human pluripotent cells are dome-shaped colonies. Therefore, any resultant human EPS cells can be morphologically distinguished from primed human pluripotent stem cells.\nPositive candidates from the first screen above were further screened in order to identify small molecules that support TGFβ signaling-independent self-renewal of hES cells (Tesar, et al., Dev., 448:196-199 (2007); James, et al.,Dev., 132:1273-1282 (2005); Vallier, et al., J. Cell. Sci., 118:4495-4509 (2005)). A TGFβ inhibitor SB431542 was added to the chemical cocktail (2i+LIF+candidate) at the later stage of treatment (FIG. 1A).\nSpecifically, primed hES/hPS H9 cells were digested into single cells using ACCUTASE® (cell detachment solution), and seeded into a matrigel-coated 24-well plate (1×10^4 cells per well) on day 0 in conventional hES medium plus Y27632. On day 1, the conventional hES medium was replaced by the N2B27 medium supplemented with the hLIF+2i base, and candidates from the first round screen were added individually into each well. The medium was changed every two days and replaced with fresh N2B27 medium supplemented with hLIF+2i. 6 days later (i.e., on day 7), a TGF (transforming growth factor) β inhibitor, SB431542 (10 μm, Tocris), was added into wells with un-differentiated cells for another 6 days. […]"}, "[1]": {"conditions": "withdrawal of either DiM or MiH"}}, "note": "Structures can show the parent of a compound that is named as a salt.", "data": [{"smiles": "NC(=O)c1cccnc1", "note": "[Nicotinamide]", "values": [{"measurement": "maintenance of hEPS cells when DiM or MiH is replaced", "setting": "hEPS cells", "result": "could be replaced with other inhibitors targeting the same targets for the maintenance of hEPS cells"}]}, {"smiles": "CN(C)CCN(Cc1ccccc1)c1ccccn1", "note": "[TripelennamineHCL, Tripelennamine HCL]", "values": [{"measurement": "maintenance of hEPS cells when DiM or MiH is replaced", "setting": "hEPS cells", "result": "could be replaced with other inhibitors targeting the same targets for the maintenance of hEPS cells"}]}, {"smiles": "O=C(NOC[C@H](O)CO)c1ccc(F)c(F)c1Nc1ccc(I)cc1F", "note": "[PD0325901]", "values": [{"measurement": "developmental potency of mEPS cells when DiM is replaced by MAPK signaling inhibitor", "setting": "mEPS cells", "result": "could not preserve the developmental potency of mEPS cells"}, {"measurement": "maintenance of hEPS cells when DiM is replaced by MAPK signaling inhibitor", "setting": "hEPS cells", "result": "could not maintain hEPS cells"}]}, {"smiles": "NC(=O)c1ccc(I)c([N+](=O)[O-])c1", "note": "[BSI-201, 4-iodo-3-nitrobenzamide]", "values": [{"measurement": "maintenance of hEPS cells when DiM or MiH is replaced", "setting": "hEPS cells", "result": "could be replaced with other inhibitors targeting the same targets for the maintenance of hEPS cells"}]}, {"smiles": "C[S+]([O-])c1ccc(-c2nc(-c3ccncc3)c(-c3ccc(F)cc3)[nH]2)cc1", "note": "(centres unmarked) [SB203580]", "values": [{"measurement": "developmental potency of mEPS cells when DiM is replaced by MAPK signaling inhibitor", "setting": "mEPS cells", "result": "could not preserve the developmental potency of mEPS cells"}, {"measurement": "maintenance of hEPS cells when DiM is replaced by MAPK signaling inhibitor", "setting": "hEPS cells", "result": "could not maintain hEPS cells"}]}, {"smiles": "Clc1ccc2c(c1)CCc1cccnc1C2=C1CCNCC1", "note": "[Desloratadine]", "values": [{"measurement": "maintenance of hEPS cells when DiM or MiH is replaced", "setting": "hEPS cells", "result": "could be replaced with other inhibitors targeting the same targets for the maintenance of hEPS cells"}]}, {"smiles": "C[C@@H](C1=C(CCN(C)C)Cc2ccccc21)c1ccccn1.O=C(O)/C=C\\C(=O)O", "note": "[DiM, (S)-(+)-Dimethindene maleate]", "values": [{"measurement": "dome-shaped hES colony formation", "setting": "primed hES/hPS H9 cells", "result": "support dome-shaped hES colony formation"}, {"measurement": "effect of withdrawal from LCDM on developmental potency of mEPS cells", "setting": "mEPS cells; [1]", "result": "significantly impaired the developmental potency of mEPS cells"}, {"measurement": "effect of withdrawal from LCDM on hEPS cells", "setting": "hEPS cells; [1]", "result": "rapid differentiation of hEPS cells within days after plating"}]}]}
